Source: patent publication US6784201B2, “Benzothiepines having activity as inhibitors of ileal bile acid transport and taurocholate uptake” (G.D. Searle & Company, priority 1994, dated 2004)
Where a name gives a salt, the structure may show the parent alone.

Legend:
[1] = biological target: T1, human IBAT (Homo sapiens, UniProt Q12908); experiment: In vitro assay of IBAT-mediated uptake of [14C]-taurocholate (TC) in H14 cells; type: cell-based; settings: In Vitro Taurocholate Uptake, Table 10; read-out: Human TC IC50
T1 construct: expressed in transfected cells; host or cells: Baby hamster kidney (BHK) cells, clone H14
T1 sequence (Q12908 1-348): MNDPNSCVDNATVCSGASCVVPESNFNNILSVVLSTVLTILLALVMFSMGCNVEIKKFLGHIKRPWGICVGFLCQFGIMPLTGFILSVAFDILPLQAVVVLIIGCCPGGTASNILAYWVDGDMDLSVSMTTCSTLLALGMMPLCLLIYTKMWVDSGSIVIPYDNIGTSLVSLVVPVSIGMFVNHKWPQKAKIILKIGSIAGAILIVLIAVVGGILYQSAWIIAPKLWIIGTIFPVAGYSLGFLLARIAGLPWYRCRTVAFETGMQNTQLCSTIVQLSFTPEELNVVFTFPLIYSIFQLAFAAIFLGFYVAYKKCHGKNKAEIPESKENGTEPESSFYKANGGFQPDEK
Method in brief: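 BHK cells stably expressing human IBAT (H14) were incubated 2 h at 37° C with compound and 3 μM final [14C]-taurocholate in DMEM (4.5 g/L glucose) plus 0.2% fatty acid-free BSA. After cold PBS washes, cell-associated radioactivity was measured by scintillation counting.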

[2] = tested on: fecal bile acid (FBA); experiment: Rat gavage assay (fecal bile acid increase); type: in vivo
Procedure: Male Wister rats (275-300 g) are administered IBAT inhibitors using an oral gavage procedure. Drug or vehicle (0.2% Tween 80 in water) is administered once a day (9:00-10:0 a.m.) for 4 days at varying dosages in a final volume of 2 mL per kilogram of body weight. Total fecal samples are collected during the final 48 hours of the treatment period and analyzed for bile acid content using an enzymatic assay as described below. Compound efficacy is determined by comparison of the increase in fecal bile acid (FBA) concentration in treated rats to the mean FBA concentration of rats in the vehicle group.
Measurement of Fecal Bile Acid Concentration (FBA)
Total fecal output from individually housed hamsters was collected for 24 or 48 hours, dried under a stream of nitrogen, pulverized and weighed. Approximately 0.1 gram was weighed out and extracted into an organic solvent (butanol/water). Following separation and drying, the residue was dissolved in methanol and the amount of bile acid present was measured enzymatically using the 3α-hydroxysteroid steroid dehydrogenase reaction with bile acids to reduce NAD. (Reference: Mashige, F., et al. (1981) Clin. Chem. 27, 1352).

CCCCC1(CCCC)CS(=O)(=O)c2ccc(N(C)C)cc2[C@@H](c2ccc(OCCCCC(=O)O)cc2)[C@H]1O [Example 1404, (4R-cis)-5-[4-[3,3-Dibutyl-7-(dimethylamino)-2,3,4,5-tetrahydro-4-hydroxy-1,1-dioxido-1-benzothiepin-5-yl]phenoxy]pentanoic Acid]
IC50 [1]: 10 nM
Delta (micromoles fecal bile acid per day) ([2]; dose 5 mg/kg/day): 93.7 micromoles fecal bile acid per day
Delta (micromoles fecal bile acid per day) ([2]; dose .04 mg/kg/day): 33.5 micromoles fecal bile acid per day
Delta (micromoles fecal bile acid per day) ([2]; dose .2 mg/kg/day): 59.1 micromoles fecal bile acid per day

CCCCC1(CCCC)CS(=O)(=O)c2ccc(N(C)C)cc2[C@@H](c2ccc(OCCCCCN(CC(=O)O)CC(=O)O)cc2)[C@H]1O [Example 1415, (4R-cis)-N-(Carboxymethyl)-N-[5-[4-[3,3-dibutyl-7-(dimethylamino)-2,3,4,5-tetrahydro-4-hydroxy-1,1-dioxido-1-benzothiepin-5-yl]phenoxy]pentyl]glycine]
IC50 [1]: 2 nM
Delta (micromoles fecal bile acid per day) ([2]; dose 2 mg/kg/day): 48.9 micromoles fecal bile acid per day
Delta (micromoles fecal bile acid per day) ([2]; dose 5 mg/kg/day): 59.9 micromoles fecal bile acid per day
Delta (micromoles fecal bile acid per day) ([2]; dose .016 mg/kg/day): 12.7 micromoles fecal bile acid per day
Delta (micromoles fecal bile acid per day) ([2]; dose .04 mg/kg/day): 23.9 micromoles fecal bile acid per day
Delta (micromoles fecal bile acid per day) ([2]; dose .08 mg/kg/day): 27.1 micromoles fecal bile acid per day
Delta (micromoles fecal bile acid per day) ([2]; dose .2 mg/kg/day): 48.1 micromoles fecal bile acid per day
Delta (micromoles fecal bile acid per day) ([2]; dose .4 mg/kg/day): 25.7 micromoles fecal bile acid per day

CCCCC1(CCCC)CS(=O)(=O)c2ccc(N(C)C)cc2[C@@H](c2ccc(OCCC[N+]34CCN(CC3)CC4)cc2)[C@H]1O [Example 1406, (4R-cis)-1-[3-[4-[3,3-Dibutyl-7-(dimethylamino)-2,3,4,5-tetrahydro-4-hydroxy-1,1-dioxido-1-benzothiepin-5-yl]phenoxy]propyl]-4-aza-1-azoniabicyclo[2.2.2]octane, Methanesulfonate (Salt)]
IC50 [1]: 4 nM
Delta (micromoles fecal bile acid per day) ([2]; dose 2 mg/kg/day): 47.8 micromoles fecal bile acid per day
Delta (micromoles fecal bile acid per day) ([2]; dose .016 mg/kg/day): −8.5 micromoles fecal bile acid per day
Delta (micromoles fecal bile acid per day) ([2]; dose .08 mg/kg/day): 12.8 micromoles fecal bile acid per day
Delta (micromoles fecal bile acid per day) ([2]; dose .4 mg/kg/day): 31.6 micromoles fecal bile acid per day

CCCCC1(CCCC)CS(=O)(=O)c2ccc(N(C)C)cc2[C@@H](c2ccc(OCc3ccc(C[n+]4ccccc4)cc3)cc2)[C@H]1O.[Cl-] [Example 1425, (4R-cis)-1-[[4-[[4-[3,3-Dibutyl-7-(dimethylamino)-2,3,4,5-tetrahydro-4-hydroxy-1,1-dioxido-1-benzothiepin-5-yl]phenoxy]methyl]phenyl]methyl]-pyridinium chloride]
IC50 [1]: 2 nM
Delta (micromoles fecal bile acid per day) ([2]; dose 5 mg/kg/day): 91.8 micromoles fecal bile acid per day
Delta (micromoles fecal bile acid per day) ([2]; dose .04 mg/kg/day): 66.4 micromoles fecal bile acid per day
Delta (micromoles fecal bile acid per day) ([2]; dose .2 mg/kg/day): 100. micromoles fecal bile acid per day

CCCCC1(CCCC)CS(=O)(=O)c2ccc(N(C)C)cc2[C@@H](c2ccc(OCCCCCN(CCN(CC)CC)CCN(CC)CC)cc2)[C@H]1O [Example 1416, (4R-cis)-5-[4-[[5-[bis[2-(Diethylamino)ethyl]amino]pentyl]oxy]phenyl]-3,3-dibutyl-7-(dimethylamino)-2,3,4,5-tetrahydro-1-benzothiepin-4-ol 1,1-dioxide]
IC50 [1]: 14 nM
Delta (micromoles fecal bile acid per day) ([2]; dose 2 mg/kg/day): 46.1 micromoles fecal bile acid per day
Delta (micromoles fecal bile acid per day) ([2]; dose .016 mg/kg/day): −7.8 micromoles fecal bile acid per day
Delta (micromoles fecal bile acid per day) ([2]; dose .08 mg/kg/day): 25 micromoles fecal bile acid per day
Delta (micromoles fecal bile acid per day) ([2]; dose .4 mg/kg/day): 21.9 micromoles fecal bile acid per day

CCCCC1(CCCC)CS(=O)(=O)c2ccc(N(C)C)cc2[C@@H](c2ccc(OCCCCCNCCc3cnc[nH]3)cc2)[C@H]1O [Example 1417, (4R-cis)-3,3-Dibutyl-7-(dimethylamino)-2,3,4,5-tetrahydro-5-[4-[[5-[[2-(1H-imidazol-4-yl)ethyl]amino]pentyl]oxy]phenyl]-1-benzothiepin-4-ol 1,1-dioxide]
IC50 [1]: 2 nM
Delta (micromoles fecal bile acid per day) ([2]; dose 2 mg/kg/day): 51.4 micromoles fecal bile acid per day
Delta (micromoles fecal bile acid per day) ([2]; dose .016 mg/kg/day): 29.3 micromoles fecal bile acid per day
Delta (micromoles fecal bile acid per day) ([2]; dose .08 mg/kg/day): 39.6 micromoles fecal bile acid per day
Delta (micromoles fecal bile acid per day) ([2]; dose .4 mg/kg/day): 42 micromoles fecal bile acid per day

CCCCC1(CCCC)CS(=O)(=O)c2ccc(N(C)C)cc2[C@@H](c2ccc(OCCCCCN(CC)CC)cc2)[C@H]1O [Example 1414, (4R-cis)-3,3-Dibutyl-5-[4-[[5-(diethylamino)pentyl]oxy]phenyl]-7-(dimethylamino)-2,3,4,5-tetrahydro-1-benzothiepin-4-ol 1,1-dioxide]
IC50 [1]: 15 nM
Delta (micromoles fecal bile acid per day) ([2]; dose 2 mg/kg/day): 41.5 micromoles fecal bile acid per day
Delta (micromoles fecal bile acid per day) ([2]; dose 5 mg/kg/day): 45.2 micromoles fecal bile acid per day
Delta (micromoles fecal bile acid per day) ([2]; dose .016 mg/kg/day): 3.8 micromoles fecal bile acid per day
Delta (micromoles fecal bile acid per day) ([2]; dose .04 mg/kg/day): 14.3 micromoles fecal bile acid per day
Delta (micromoles fecal bile acid per day) ([2]; dose .08 mg/kg/day): 29 micromoles fecal bile acid per day
Delta (micromoles fecal bile acid per day) ([2]; dose .2 mg/kg/day): 39.5 micromoles fecal bile acid per day
Delta (micromoles fecal bile acid per day) ([2]; dose .4 mg/kg/day): 33.7 micromoles fecal bile acid per day

CCCCC1(CCCC)CS(=O)(=O)c2ccc(N(C)C)cc2[C@@H](c2ccc(OCCCCCNCC(=O)O)cc2)[C@H]1O [Example 1423, (4R-cis)-N-[5-[4-[3,3-Dibutyl-7-(dimethylamino)-2,3,4,5-tetrahydro-4-hydroxy-1,1-dioxido-1-benzothiepin-5-yl]phenoxy]pentyl]glycine]
IC50 [1]: 3 nM
Delta (micromoles fecal bile acid per day) ([2]; dose 2 mg/kg/day): 56.5 micromoles fecal bile acid per day
Delta (micromoles fecal bile acid per day) ([2]; dose .016 mg/kg/day): 14.4 micromoles fecal bile acid per day
Delta (micromoles fecal bile acid per day) ([2]; dose .08 mg/kg/day): 35.3 micromoles fecal bile acid per day
Delta (micromoles fecal bile acid per day) ([2]; dose .4 mg/kg/day): 69.3 micromoles fecal bile acid per day

CCCCC1(CCCC)CS(=O)(=O)c2ccc(N(C)C)cc2[C@@H](c2ccc(OCc3ccc(CN(CC(=O)O)CC(=O)O)cc3)cc2)[C@H]1O (relative stereo) [Example 1427]
IC50 [1]: 2 nM
Delta (micromoles fecal bile acid per day) ([2]; dose 2 mg/kg/day): 36.7 micromoles fecal bile acid per day
Delta (micromoles fecal bile acid per day) ([2]; dose .016 mg/kg/day): 13.8 micromoles fecal bile acid per day
Delta (micromoles fecal bile acid per day) ([2]; dose .08 mg/kg/day): 27.3 micromoles fecal bile acid per day
Delta (micromoles fecal bile acid per day) ([2]; dose .4 mg/kg/day): 35.8 micromoles fecal bile acid per day

CCCCC1(CCCC)CS(=O)(=O)c2ccc(N(C)C)cc2[C@@H](c2ccc(OCCCC[n+]3cccc(O)c3)cc2)[C@H]1O.CS(=O)(=O)[O-] [Example 1411, (4R-cis)-1-[4-[4-[3,3-Dibutyl-7-(dimethylamino)-2,3,4,5-tetrahydro-4-hydroxy-1,1-dioxido-1-benzothiepin-5-yl]phenoxy]butyl]-3-hydroxypyridinium, methanesulfonate (Salt)]
IC50 [1]: 2 nM
Delta (micromoles fecal bile acid per day) ([2]; dose 2 mg/kg/day): 63.4 micromoles fecal bile acid per day
Delta (micromoles fecal bile acid per day) ([2]; dose .016 mg/kg/day): 22.3 micromoles fecal bile acid per day
Delta (micromoles fecal bile acid per day) ([2]; dose .08 mg/kg/day): 33 micromoles fecal bile acid per day
Delta (micromoles fecal bile acid per day) ([2]; dose .4 mg/kg/day): 54.1 micromoles fecal bile acid per day

CCCCC1(CCCC)CS(=O)(=O)c2ccc(N(C)C)cc2[C@@H](c2ccc(OCC(=O)NCC(=O)O)cc2)[C@H]1O [Example 1403]
IC50 [1]: 23 nM
Delta (micromoles fecal bile acid per day) ([2]; dose 2 mg/kg/day): 41.6 micromoles fecal bile acid per day
Delta (micromoles fecal bile acid per day) ([2]; dose .016 mg/kg/day): 3 micromoles fecal bile acid per day
Delta (micromoles fecal bile acid per day) ([2]; dose .08 mg/kg/day): 11.9 micromoles fecal bile acid per day
Delta (micromoles fecal bile acid per day) ([2]; dose .4 mg/kg/day): 35.2 micromoles fecal bile acid per day

CCCCC1(CCCC)CS(=O)(=O)c2ccc(N(C)C)cc2[C@@H](c2ccc(OCCCC[N+](CC)(CC)CC)cc2)[C@H]1O.CS(=O)(=O)[O-] [Example 1410, (4R-cis)-4-[4-[3,3-Dibutyl-7-(dimethylamino)-2,3,4,5-tetrahydro-4-hydroxy-1,1-dioxido-1-benzothiepin-5-yl]phenoxy]-N,N,N-triethyl-1-butanaminium]
IC50 [1]: 2 nM
Delta (micromoles fecal bile acid per day) ([2]; dose 2 mg/kg/day): 26.2 micromoles fecal bile acid per day
Delta (micromoles fecal bile acid per day) ([2]; dose .016 mg/kg/day): 20.4 micromoles fecal bile acid per day
Delta (micromoles fecal bile acid per day) ([2]; dose .08 mg/kg/day): 18.5 micromoles fecal bile acid per day
Delta (micromoles fecal bile acid per day) ([2]; dose .4 mg/kg/day): 36.5 micromoles fecal bile acid per day
